Data reported in patent US20090005436A1, “Substituted Aminoalkyl- and Amidoalkyl-Benzopyran Derivatives” (NEWRON PHARMACEUTICALS S.p.A., priority 2005, published 2009).

Assays:
MAO-B = molecular target: T1, MAO-B (Rattus norvegicus, UniProt P19643); test: In vitro MAO-B enzyme activity radioenzymatic assay (14C-phenylethylamine substrate), rat brain crude mitochondrial fraction
T1 sequence (P19643 1-520): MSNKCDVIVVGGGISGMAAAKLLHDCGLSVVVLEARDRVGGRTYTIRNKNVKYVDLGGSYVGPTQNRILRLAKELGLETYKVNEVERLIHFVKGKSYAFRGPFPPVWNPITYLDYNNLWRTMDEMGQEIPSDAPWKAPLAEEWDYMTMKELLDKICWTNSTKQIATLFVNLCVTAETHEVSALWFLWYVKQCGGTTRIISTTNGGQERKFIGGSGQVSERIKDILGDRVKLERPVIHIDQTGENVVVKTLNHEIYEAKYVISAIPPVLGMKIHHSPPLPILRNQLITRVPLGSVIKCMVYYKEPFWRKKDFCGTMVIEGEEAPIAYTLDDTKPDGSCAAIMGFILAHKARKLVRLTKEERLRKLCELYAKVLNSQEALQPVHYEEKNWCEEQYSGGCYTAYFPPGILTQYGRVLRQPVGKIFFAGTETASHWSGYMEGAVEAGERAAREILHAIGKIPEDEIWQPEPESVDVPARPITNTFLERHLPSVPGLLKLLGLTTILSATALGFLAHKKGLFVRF

MAO-A = molecular target: T2, MAO-A (Rattus norvegicus, UniProt P21396); test: In vitro MAO-A enzyme activity radioenzymatic assay (14C-serotonin substrate), rat brain crude mitochondrial fraction
T2 sequence (P21396 1-526): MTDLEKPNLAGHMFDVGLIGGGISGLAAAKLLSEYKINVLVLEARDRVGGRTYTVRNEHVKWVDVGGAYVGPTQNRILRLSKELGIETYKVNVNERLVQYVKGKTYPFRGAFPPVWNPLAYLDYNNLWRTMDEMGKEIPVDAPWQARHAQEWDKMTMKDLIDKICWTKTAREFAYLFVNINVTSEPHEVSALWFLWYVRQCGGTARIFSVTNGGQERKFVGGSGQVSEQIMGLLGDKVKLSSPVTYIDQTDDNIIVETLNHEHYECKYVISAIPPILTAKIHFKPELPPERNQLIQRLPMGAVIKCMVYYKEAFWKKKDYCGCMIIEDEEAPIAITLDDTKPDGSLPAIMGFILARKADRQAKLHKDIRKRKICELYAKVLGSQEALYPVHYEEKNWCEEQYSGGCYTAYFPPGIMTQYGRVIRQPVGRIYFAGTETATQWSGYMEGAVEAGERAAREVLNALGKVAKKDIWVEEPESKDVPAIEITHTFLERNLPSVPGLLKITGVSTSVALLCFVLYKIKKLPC

| Compound | IC50 (MAO-B) | IC50 (MAO-A) |
| --- | --- | --- |
| NC(=O)Cc1cc(=O)oc2cc(OCc3cccc(F)c3)ccc12 [4-[(Aminocarbonyl)methyl]-7-(3-fluorobenzyloxy)-2H-chromen-2-one] | 0.05 µM | 70 µM |
| NCCc1cc(=O)oc2cc(OCc3cccc(Cl)c3)ccc12 [4-(2-Aminoethyl)-7-(3-chlorobenzyloxy)-2H-chromen-2-one] | 0.25 µM | 31.8 µM |
| CNCc1cc(=O)oc2cc(OCc3cccc(F)c3)ccc12 [4-[(Methylamino)methyl]-7-(3-fluorobenzyloxy)-2H-chromen-2-one] | 0.02 µM | 13.5 µM |
| NCc1cc(=O)oc2cc(OCc3cccc(Cl)c3)ccc12 [4-Aminomethyl-7-(3-chlorobenzyloxy)-2H-chromen-2-one] | 0.01 µM | 1.9 µM |
| CNCCc1cc(=O)oc2cc(OCc3cccc(Cl)c3)ccc12 [4-[2-(Methylamino)ethyl]-7-(3-chlorobenzyloxy)-2H-chromen-2-one] | 0.3 µM | 74 µM |
| CN(C)C(=O)CC1=CCOc2cc(OCc3ccccc3)ccc21 [4-[(Dimethylaminocarbonyl)methyl]-7-benzyloxy-2H-chromene] | 0.08 µM | 15.3 µM |
| CN(C)C(=O)Cc1cc(=O)oc2cc(OCc3cccc(Cl)c3)ccc12 [4-[Dimethylaminocarbonyl)methyl]-7-(3-chlorobenzyloxy)-2H-chromen-2-one] | 0.04 µM | > 100 µM |
| CNCc1cc(=O)oc2cc(OCc3cccc(Cl)c3)ccc12 [4-[(Methylamino)methyl]-7-(3-chlorobenzyloxy)-2H-chromen-2-one] | 0.01 µM | 5.9 µM |
| NNC(=O)Cc1cc(=O)oc2cc(OCc3ccccc3)ccc12 [4-[(Hydrazinocarbonyl)methyl]-7-benzyloxy-2H-chromen-2-one] |  | 1.4 µM |
